The values below come from publication PMC6634946 (The FEBS journal, 2019).

Common to all, as to assay type: cell-based, human
In assay [1] the test system is U-2 OS cells. Briefly: Caspase 3/7 activity assay. The settings on record: 24 or 48 hours.
Another assay deals with SJSA-1 cells. Briefly: Caspase 3/7 activity assay. Conditions: SJSA-1, 24 or 48 hours.
Assay [2] deals with U-2 OS cells. Nature of the assay: Western blot analysis of p53, p21 expression. Conditions: 24 hours, (R)-5a effect at 5 and 10 μM. Background: Immunoblotting shows a protein as a band on a membrane.
In assay [3] the test system is U-2 OS cells. Nature of the assay: Real-time PCR of p53-target genes. The settings on record: 6 hours, 10 μM (R)-5a, 5 μM RG7388, normalized to GAPDH.
Assay [4] has as its system U-2 OS cells. Nature of the assay: Cell cycle analysis. Conditions: 24 hours, 5 μM, control 55%.

Take `CN[C@@H]1C[C@H]2O[C@@](C)([C@@H]1OC)n1c3ccccc3c3c4c(c5c6ccccc6n2c5c31)C(=O)NC4` [Staurosporine]: the “induction of apoptosis (caspase 3/7 activity)” value in the assay on U-2 OS cells [1] and with SJSA-1 cells was “induced apoptosis in both cell lines” each time.
In the case of `COc1ccc(C2=N[C@@H](c3ccc(Cl)cc3)[C@@H](c3ccc(Cl)cc3)N2C(=O)N2CCNC(=O)C2)c(OC(C)C)c1` [Nutlin-3], the “expression of p53 and p21 protein” value in the assay on U-2 OS cells [2] is “increased the expression of p21 and p53”.
As to `COc1cc(C(=O)O)ccc1NC(=O)[C@@H]1N[C@@H](CC(C)(C)C)[C@](C#N)(c2ccc(Cl)cc2F)[C@H]1c1cccc(Cl)c1F` [RG7388, Idasanutlin], the “induction of apoptosis (caspase 3/7 activity)” value with U-2 OS cells [1] is recorded as “not in U-2 OS cells”; in the assay with SJSA-1 cells, “induced apoptosis only in SJSA-1 cells”. The “expression of p53 and p21 protein” value with U-2 OS cells [2] was “increased the expression of p21 and p53”. Besides, the “MDM2 and CDKN1A transcripts” value in the assay on U-2 OS cells [3] was “significant increase of MDM2 and CDKN1A transcripts”. In the assay on U-2 OS cells [4], the “percentage of S-phase cells” value worked out at 0.5%.
